Patent EP0172919A1, “CEPHALOSPORIN DERIVATIVES, PROCESS FOR THEIR PREPARATION, AND THEIR PHARMACEUTICAL USE” (TEIJIN LIMITED, priority 1984, dated 1985)
Values after ≈ are worked out from the molar mass of the structure shown. Read-outs that look alike come from different tables or passages of the source.

Assays:
Test in all cases: In vitro antibacterial activity, two-fold agar-plate dilution method (MIC)
Format in all cases: cell-based
Staphyrococcus Terajima = settings: Staphyrococcus Terajima, agar dilution, 37°C for 16 hours
Procedure: (§1) In vitro antibacterial activity was determined by the two-fold agar-plate dillution method.
(§2) One loopful of an overnight culture of each test starin in Trypticase-soy broth (10^6 viable cells per mt) was streaked on heart infusion agar (Muller-Hinton Agar) containing graded concentrations of representative test compound, and the minimal inhibitory concentration (MIC) was expressed in terms of µg/ml after incubation at 37°C for 16 hours.
(§3) In vitro antibacterial activities of other compounds of the present invention were determined in the same way as in Example 26.

Proleus morgani IFO3848 = settings: 37°C for 16 hours
Procedure: as §1, §2, §3

Proleus vulgaria OX-19 = settings: 37°C for 16 hours
Procedure: as §1, §2, §3

[1] = tested on: Pseudomonas aeruginosa IFO3445; settings: Pseudomonas aeruginosa IFO3445, agar dilution, 37°C for 16 hours
Procedure: as §1, §2, §3

Salmonera paratyphi 1015 = tested on: Salmonera paratyphi 1015
Procedure: as §1, §2, §3

[2] = tested on: Proleus vulgaris IFO 3850
Procedure: as §1, §2, §3

[3] = tested on: Serratia marcescens IAM1184
Procedure: as §1, §2, §3

Enterobacter cloacae 963 = settings: Enterobacter cloacae 963, agar dilution, 37°C for 16 hours
Procedure: as §1, §2, §3

[4] = Proleus vulgaris IFO 3850, agar dilution, 37°C for 16 hours, read-out: MIC
[5] = Serratia marcescens, IAM1184, 16 h

SMILES	MIC (Staphyrococcus Terajima) [µg/mL]	MIC (Proleus morgani IFO3848) [µg/mL]	MIC (Proleus vulgaria OX-19) [µg/mL]	MIC [1] [µg/mL]	MIC (Salmonera paratyphi 1015; Salmonera paratyphi 1015, agar dilution, 37°C for 16 hours) [µg/mL]	MIC ([2]; Proleus vulgaris IFO 3850, agar dilution, 37°C for 16 hours) [µg/mL]	MIC ([3]; Serratia marcescens IAM1184, agar dilution, 37°C for 16 hours) [µg/mL]	MIC (Enterobacter cloacae 963) [µg/mL]	MIC (Staphyrococcus Terajima; read-out: MIC) [µg/mL]	MIC (Proleus morgani IFO3848; read-out: MIC) [µg/mL]	MIC ([1]; read-out: MIC) [µg/mL]	MIC (Salmonera paratyphi 1015; 16 h) [µg/mL]	MIC [2, 4] [µg/mL]	MIC [3, 5] [µg/mL]	MIC (Enterobacter cloacae 963; read-out: MIC) [µg/mL]	MIC (Proleus vulgaria OX-19; read-out: MIC) [µg/mL]	MIC ([3]; Serratia marcescens IAM1184, agar dilution, 37°C for 16 hours, read-out: MIC) [µg/mL]	MIC ([2]; 16 h) [µg/mL]
CO/N=C(\C(=O)N[C@@H]1C(=O)N2C(C(=O)[O-])=C(C[N+]34CCCC3CCC4C)CS[C@H]12)c1csc(N)n1 (stereo partly drawn) [Compound (106), (6R,7R)-7-[(Z)-2-(2-aminothiazol-4-yℓ)-2-methoxyiminoacetoamido]-3-(l-aza-8-methl-bicyclo[3,3,0]octane-l-io)methyl-3-cephem-4-carboxylate]	0.2 (≈ 0.384 µM)	0.025 (≈ 0.048 µM)	0.025 (≈ 0.048 µM)	0.78 (≈ 1.5 µM)	0.025 (≈ 0.048 µM)	0.0125 (≈ 0.024 µM)	0.05 (≈ 0.096 µM)	0.2 (≈ 0.384 µM)										
CC(C)(O/N=C(\C(=O)N[C@@H]1C(=O)N2C(C(=O)[O-])=C(C[N+]34CCCC3CCC4)CS[C@H]12)c1csc(N)n1)C(=O)O (stereo partly drawn) [Compound (116), (6R,7R)-7-[(Z)-2-(2-aminothiazol-4-yl)-2-(2-carboxypropyl-2-yloxyimino)acetoamido]-3-(1-azabicyclo[3,3,0]octane-l-io)methyl-3-cephem-4-carboxylate]									0.78 (≈ 1.35 µM)	0.0063 (≈ 0.0109 µM)	0.2 (≈ 0.346 µM)	0.0125 (≈ 0.0216 µM)	0.0063 (≈ 0.0109 µM)	0.0125 (≈ 0.0216 µM)	0.05 (≈ 0.0864 µM)			
CO/N=C(\C(=O)N[C@@H]1C(=O)N2C(C(=O)[O-])=C(C[N+]34CCC(CC3)C4)CS[C@H]12)c1csc(N)n1 [Compound (200), (6R,7R)-7-[(Z)-2-(2-aminothiazol-4-yℓ)-2-methoxyiminoacetoamido]-3-(1-azabicyclo[2,2,1]heptane-l-io)methyl-3-cephem-4-carboxylate]									0.2 (≈ 0.406 µM)	0.0063 (≈ 0.0128 µM)	1.56 (≈ 3.17 µM)	0.025 (≈ 0.0508 µM)	0.0125 (≈ 0.0254 µM)		0.05 (≈ 0.102 µM)	0.05 (≈ 0.102 µM)	0.025 (≈ 0.0508 µM)	
CO/N=C(\C(=O)N[C@@H]1C(=O)N2C(C(=O)[O-])=C(C[N+]34CCC(CC3)C(=O)C4)CS[C@H]12)c1csc(N)n1 [Compound (300), (6R,7R)-7-[(Z)-2-(2-aminothiazol-4-yl)-2-methoxyiminoacetoamido]-3-(1-aza-3-carbonyl-bicyclo[2,2,2]octane-l-io)methyl-3-cephem-4-carboxylate]									0.2 (≈ 0.384 µM)	> 0.0063	0.39 (≈ 0.749 µM)	0.0125 (≈ 0.024 µM)		0.0125 (≈ 0.024 µM)	0.025 (≈ 0.048 µM)	0.025 (≈ 0.048 µM)		0.0125 (≈ 0.024 µM)
CO/N=C(\C(=O)N[C@@H]1C(=O)N2C(C(=O)[O-])=C(C[N+]34CCC(CC3)C(O)C4)CS[C@H]12)c1csc(N)n1 (stereo partly drawn) [Compound (302), (6R,7R)-7-[(Z)-2-(2-aminothiazol-4-yℓ)-2-methoxyiminoacetoamido]-3-(1-aza-3-hydro-xybicyclo[2,2,2]octane-l-io)methyl-3-cephem-4-carboxylate]									0.1 (≈ 0.191 µM)	0.0063 (≈ 0.0121 µM)	0.39 (≈ 0.746 µM)	0.0125 (≈ 0.0239 µM)	0.0063 (≈ 0.0121 µM)	0.0125 (≈ 0.0239 µM)	0.025 (≈ 0.0478 µM)	0.025 (≈ 0.0478 µM)		
